From patent US20090298825A1, “Bicycloheteroaryl Compounds as P2x7 Modulators and Uses Thereof” (priority 2006, published 2009) come the findings set out here.

Bounds are passed on as bounds.

The term IC50 denotes the point on the concentration scale where inhibition reaches its midpoint.

This test has as its target T1, P2X7 receptor (Homo sapiens, UniProt Q99572).
T1 construct: endogenous in cells; host or cells: THP-1 cells differentiated with LPS and IFN-γ
T1 sequence (Q99572 1-595): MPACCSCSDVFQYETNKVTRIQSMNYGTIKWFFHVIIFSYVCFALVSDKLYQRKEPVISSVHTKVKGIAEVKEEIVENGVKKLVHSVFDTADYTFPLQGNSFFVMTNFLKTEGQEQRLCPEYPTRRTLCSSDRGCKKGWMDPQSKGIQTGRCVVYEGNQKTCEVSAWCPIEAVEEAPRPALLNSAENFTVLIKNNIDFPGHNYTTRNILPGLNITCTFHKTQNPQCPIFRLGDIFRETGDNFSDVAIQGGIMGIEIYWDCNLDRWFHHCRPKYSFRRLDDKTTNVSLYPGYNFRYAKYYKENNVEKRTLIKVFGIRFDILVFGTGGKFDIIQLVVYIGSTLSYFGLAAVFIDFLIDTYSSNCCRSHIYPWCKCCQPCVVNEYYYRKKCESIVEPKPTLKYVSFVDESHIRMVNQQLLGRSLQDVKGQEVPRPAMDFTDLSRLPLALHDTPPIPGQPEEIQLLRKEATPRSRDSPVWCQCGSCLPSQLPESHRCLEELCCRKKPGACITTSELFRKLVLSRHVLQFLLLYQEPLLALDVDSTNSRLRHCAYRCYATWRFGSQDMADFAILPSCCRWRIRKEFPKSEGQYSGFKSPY
Put plainly: IL-1β release assay in differentiated THP-1 cells stimulated with BzATP (Example 9). It counts as cell-based. Particulars: for inhibition at 0.3 µM: 0.3 μM concentration; for inhibition at 0.3 µM / inhibition at 0.1 µM: read-out: IL-1β % Inhib. @ 0.3 or 0.1 μM; for IC50: four parameter logistic fit, read-out: IL-1β IC50; for inhibition at 0.1 µM: 0.1 μM concentration. On the procedure:
The cells are then pretreated for 30 minutes with the compound of interest at the appropriate concentration in RPMI media containing 100 IU/mL penicillin, 100 ug/mL streptomycin. […] 30 uL of cell supernatant is then collected and IL-1β levels determined via ELISA (R&D systems Cat. # HSLB50) according to manufacturer's recommendations using the Tecan Safire plate reader. Background adjusted IL-1β levels of drug treated and non-treated cells are used to calculate the percent inhibition.
The compounds set forth in Table 1 were tested for activity in a cellular model as described herein. […] Measurements were made and IC50 values, presented in Table 2, below, were determined by fitting the data to a four parameter logistic equation using GraphPad Prism software (GraphPad Software, Inc). The equation may be expressed by the following formula:
Y=Bottom+(Top-Bottom)/(1+10̂((Log EC50−X)*HillSlope))
Where X is the logarithm of concentration, Y is the response and Y starts at Bottom and goes to Top with a sigmoid shape.

Consider `O=C(CC12CC3CC(CC(C3)C1)C2)Nc1cccc2c(=O)n(-c3ccc(Oc4ccc(Br)cc4)nc3)ccc12` [ID 704], for which the inhibition at 0.3 µM is above 76% and the IC50 stood at 0.322 nM.

Turning to `CCOC(=O)N1CCC(n2ccc3c(NC(=O)c4cccc(Cl)c4C)cccc3c2=O)CC1` [ID 801], the inhibition at 0.1 µM fell in the range of 0 to 25%.

`CC(C(=O)Nc1cccc2c(=O)n(-c3cccnc3F)ccc12)c1cccc(C(F)(F)F)c1F` (stereo not shown) [ID 875]: the inhibition at 0.3 µM was above 76% and the half-maximal inhibitory concentration (IC50) came to 8.32 nM.

Turning to `CCOC(=O)N1CCC(n2ccc3c(NC(=O)CCc4ccc(C)cc4C)cccc3c2=O)CC1` [ID 810], the inhibition at 0.1 µM is 0 to 25%.

Take `CCOC(=O)N1CCC(n2ccc3c(NC(=O)c4cccc5c4OCCO5)cccc3c2=O)CC1` [ID 798]: the inhibition at 0.1 µM fell in the range of 0 to 25%.

With `CCOC(=O)N1CCC(n2ccc3c(NC(=O)CCc4ccccc4C)cccc3c2=O)CC1` [ID 751], the inhibition at 0.1 µM fell in the range of 0 to 25%.

For the molecule `CCOC(=O)N1CCC(n2ccc3c(NC(=O)c4ccc(C)cc4C)cccc3c2=O)CC1` [ID 766], the inhibition at 0.1 µM lay within 0 to 25%.

In the case of `Cc1cc(-n2ccc3c(NC(=O)c4cccc(C)c4C)cccc3c2=O)no1` [ID 721], the inhibition at 0.1 µM was in the range of 0 to 25%.

In the case of `O=C(Cc1ccc(Cl)c(F)c1)Nc1cccc2c(=O)n(C3CCC3)ccc12` [ID 897], the inhibition at 0.3 µM is above 76% and the concentration for half-maximal inhibition (IC50) is 24.5 nM.

As for `Cc1cccc(CCC(=O)Nc2cccc3c(=O)n(-c4cc(C)on4)ccc23)c1` [ID 742], the inhibition at 0.1 µM was in the range of 0 to 25%.

With `Cc1cc(-n2ccc3c(NC(=O)c4ccc(CC(C)C)cc4)cccc3c2=O)no1` [ID 747], the inhibition at 0.1 µM was in the range of 0 to 25%.

Take `Cc1ncccc1-n1ccc2c(NC(=O)Cc3ccc(F)c(Cl)c3)cccc2c1=O` [ID 857]: the inhibition at 0.3 µM was above 76% and the IC50 is 75.7 nM.

Regarding `CCOC(=O)N1CCC(n2ccc3c(NC(=O)c4cc5ccccc5o4)cccc3c2=O)CC1` [ID 789], the inhibition at 0.1 µM was 0 to 25%.

For `CCOC(=O)N1CCC(n2ccc3c(NC(=O)Cc4cccc(OC)c4)cccc3c2=O)CC1` [ID 782], the inhibition at 0.1 µM fell in the range of 0 to 25%.

Regarding `COc1ccccc1CCC(=O)Nc1cccc2c(=O)n(-c3cc(C)on3)ccc12` [ID 724], the inhibition at 0.1 µM is 0 to 25%.

As for `O=C(CC1(O)CCCCCC1)Nc1cccc2c(=O)n([C@H]3CCNC3)ccc12` [ID 849], the inhibition at 0.3 µM lay within 0 to 25% and the IC50 came to 403 nM.

In the case of `CCOC(=O)N1CCC(n2ccc3c(NC(=O)CCc4cccc(C)c4)cccc3c2=O)CC1` [ID 807], the inhibition at 0.1 µM was 0 to 25%.

Take `Cc1ccncc1-n1ccc2c(NC(=O)Cc3ccc(C(F)(F)F)c(F)c3)cccc2c1=O` [ID 856]: the inhibition at 0.3 µM was above 76% and the IC50 amounted to 129 nM.

For `Cc1cccc(CC(=O)Nc2cccc3c(=O)n(-c4cc(C)on4)ccc23)c1` [ID 731], the inhibition at 0.1 µM is 0 to 25%.

For `O=C(Cc1ccc(C(F)(F)F)cc1)Nc1cccc2c(=O)n(C3CCC3)ccc12` [ID 891], the inhibition at 0.3 µM lay in the range of 51 to 75% and the IC50 was 283 nM.

As to `O=C(Cc1cccc(C(F)(F)F)c1F)Nc1cccc2c(=O)n(C3CCC3)ccc12` [ID 886], the inhibition at 0.3 µM is above 76% and the IC50 worked out at 20.3 nM.

Consider `O=C(Cc1ccc(Cl)c(C(F)(F)F)c1)Nc1cccc2c(=O)n(-c3cc[nH]n3)ccc12` [ID 842], for which the inhibition at 0.3 µM is above 76% and the IC50 is 1.24 nM.

For the molecule `CCOC(=O)N1CCC(n2ccc3c(NC(=O)Cc4ccc(OC)cc4)cccc3c2=O)CC1` [ID 785], the inhibition at 0.1 µM lay within 0 to 25%.

Regarding `CC(C(=O)Nc1cccc2c(=O)n(-c3cc[nH]n3)ccc12)c1ccc(Cl)c(C(F)(F)F)c1` (stereo not shown) [ID 839], the inhibition at 0.3 µM is above 76% and the half-inhibitory concentration (IC50) is 14.1 nM.

Turning to `CCOC(=O)N1CCC(n2ccc3c(NC(=O)c4cccc(C)c4)cccc3c2=O)CC1` [ID 770], the inhibition at 0.1 µM lay within 0 to 25%.

For the molecule `Cc1cc(-n2ccc3c(NC(=O)C(C)c4ccc(Cl)c(C(F)(F)F)c4)cccc3c2=O)n[nH]1` (stereo not shown) [ID 838], the inhibition at 0.3 µM was above 76% and the IC50 was 14.9 nM.

On to `CCOC(=O)N1CCC(n2ccc3c(NC(=O)c4ccc(OCC)cc4O)cccc3c2=O)CC1` [ID 748], for which the inhibition at 0.1 µM fell in the range of 0 to 25%.

For the molecule `CCOC(=O)N1CCC(n2ccc3c(NC(=O)c4ccc5c(c4)OCCCO5)cccc3c2=O)CC1` [ID 799], the inhibition at 0.1 µM lay within 0 to 25%.

On to `CCOC(=O)N1CCC(n2ccc3c(NC(=O)c4ccc(-c5ccccc5)cc4)cccc3c2=O)CC1` [ID 772], for which the inhibition at 0.1 µM lay in the range of 0 to 25%.

Consider `Cc1ncccc1-n1ccc2c(NC(=O)Cc3cccc(C(F)(F)F)c3F)cccc2c1=O` [ID 854], for which the inhibition at 0.3 µM was above 76% and the IC50 was 27.1 nM.

In the case of `Cc1ccncc1-n1ccc2c(NC(=O)Cc3cccc(C(F)(F)F)c3F)cccc2c1=O` [ID 852], the inhibition at 0.3 µM is above 76% and the IC50 came out at 43.1 nM.

Consider `CCOC(=O)N1CCC(n2ccc3c(NC(=O)Cc4cc(OC)cc(OC)c4)cccc3c2=O)CC1` [ID 791], for which the inhibition at 0.1 µM lay within 0 to 25%.

For the molecule `CCOC(=O)N1CCC(n2ccc3c(NC(=O)c4ccc(-c5ccccc5)o4)cccc3c2=O)CC1` [ID 752], the inhibition at 0.1 µM lay in the range of 0 to 25%.

`Cc1ccncc1-n1ccc2c(NC(=O)Cc3ccc(C(F)(F)F)cc3)cccc2c1=O` [ID 853]: the inhibition at 0.3 µM is 51 to 75% and the 50% inhibitory concentration (IC50) was determined as 245 nM.

For the molecule `Cc1cc(-n2ccc3c(NC(=O)c4ccccc4C)cccc3c2=O)no1` [ID 720], the inhibition at 0.1 µM was 0 to 25%.

With `Cc1cc(-n2ccc3c(NC(=O)c4ccccc4Cl)cccc3c2=O)no1` [ID 719], the inhibition at 0.1 µM was 0 to 25%.

Consider `C[C@H](C(=O)Nc1cccc2c(=O)n([C@H]3CCNC3)ccc12)c1ccc(Cl)c(Cl)c1` [ID 832], for which the inhibition at 0.3 µM is above 76% and the IC50 was 73.6 nM.

For the molecule `CCOC(=O)N1CCC(n2ccc3c(NC(=O)c4ccc(CC(C)C)cc4)cccc3c2=O)CC1` [ID 812], the inhibition at 0.1 µM lay within 0 to 25%.

Consider `CCOC(=O)N1CCC(n2ccc3c(NC(=O)c4cccc(OCC)c4)cccc3c2=O)CC1` [ID 757], for which the inhibition at 0.1 µM is 0 to 25%.

For `Cc1ncccc1-n1ccc2c(NC(=O)Cc3ccc(C(F)(F)F)cc3C(F)(F)F)cccc2c1=O` [ID 868], the inhibition at 0.3 µM was above 76% and the IC50 is 68.7 nM.

Take `O=C(Cc1ccc(Cl)c(C(F)(F)F)c1)Nc1cccc2c(=O)n(C3CCC3)ccc12` [ID 899]: the inhibition at 0.3 µM is above 76% and the half-maximal inhibitory concentration (IC50) was found to be 6.19 nM.

Regarding `COc1ccc(CC(=O)Nc2cccc3c(=O)n(-c4cc(C)on4)ccc23)cc1C` [ID 741], the inhibition at 0.1 µM lay in the range of 0 to 25%.

As for `O=C(Cc1ccc(Cl)c(C(F)(F)F)c1)Nc1cccc2c(=O)n(-c3cccnc3N3CCOCC3)ccc12` [ID 848], the inhibition at 0.3 µM was above 76% and the IC50 was 44.4 nM.

For the molecule `Cc1ncccc1-n1ccc2c(NC(=O)C(C)c3cccc(C(F)(F)F)c3F)cccc2c1=O` (stereo not shown) [ID 862], the inhibition at 0.3 µM is above 76% and the IC50 came out at 17.2 nM.

On to `Cc1cc(-n2ccc3c(NC(=O)c4ccc(F)c(C)c4)cccc3c2=O)no1` [ID 740], for which the inhibition at 0.1 µM lay within 0 to 25%.

Regarding `CCOC(=O)N1CCC(n2ccc3c(NC(=O)Cc4ccc(OCC)cc4)cccc3c2=O)CC1` [ID 786], the inhibition at 0.1 µM fell in the range of 0 to 25%.

For the molecule `Cc1ccc(CC(=O)Nc2cccc3c(=O)n(-c4cc(C)on4)ccc23)cc1` [ID 733], the inhibition at 0.1 µM lay in the range of 0 to 25%.

Turning to `O=C(Cc1ccc(Cl)c(Cl)c1)Nc1cccc2c(=O)n(C3CCNCC3)ccc12` [ID 816], the inhibition at 0.3 µM lay in the range of 26 to 50% and the IC50 is 305 nM.

As for `Cc1cc(-n2ccc3c(NC(=O)C4C[C@@H]5CC[C@H]4C5)cccc3c2=O)no1` (stereo partly shown) [ID 738], the inhibition at 0.1 µM was 0 to 25%.

`Cc1cc(-n2ccc3c(NC(=O)Cc4ccccc4F)cccc3c2=O)no1` [ID 726]: the inhibition at 0.1 µM was 0 to 25%.

As for `Cc1cc(-n2ccc3c(NC(=O)CC4CC5CCC4C5)cccc3c2=O)no1` (stereo not shown) [ID 735], the inhibition at 0.1 µM is above 76%.

Turning to `CC(C(=O)Nc1cccc2c(=O)n([C@@H]3CCNC3)ccc12)c1ccc(Cl)cc1` (stereo partly shown) [ID 835], the inhibition at 0.3 µM fell in the range of 51 to 75% and the half-inhibitory concentration (IC50) is 151 nM.

As for `CCOc1cccc(C(=O)Nc2cccc3c(=O)n(-c4cc(C)on4)ccc23)c1` [ID 717], the inhibition at 0.1 µM fell in the range of 0 to 25%.

Consider `COc1ccc(-n2ccc3c(NC(=O)CC45CC6CC(CC(C6)C4)C5)cccc3c2=O)cn1` [ID 705], for which the inhibition at 0.3 µM is above 76% and the IC50 is 2.4 nM.
